Data set [1] deals with TNF-α. The data set is described as follows: LPS-induced TNF-α production in RAW 264.7 cells (ELISA). The format is cell-based, mouse. To be noted: for TNF-α level / TNF-α % Δ: 1 μM, LPS-challenged RAW 264.7 cells; for TNF-α % Δ: percentage of vehicle control value (control = 100%), mean ± S.E.M., n = 3; for LPS-induced TNF-α in cell culture media (in words): 100-1000 nM; for concentration from which TNF-α was significantly reduced: 100-1000 nM tested, vs LPS+Vehicle. An outline of the steps: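 Sandwich ELISA of TNF-α secreted into the media of RAW 264.7 cultures, with a biotinylated detection antibody, avidin-HRP and TMB substrate. Absorbance read at 450 nm with 570 nm background subtraction. Levels interpolated from a TNF-α protein standard curve.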

Another data set relates to IFN-γ. The data set is described as follows: LPS model of inflammation in rats: IFN-γ in plasma and cortex. To be noted: LPS-challenged rats; for IFN-γ in plasma (in words): low and high dose. The format is in vivo, rat.
Data set [2] concerns TNF-α. The data set is described as follows: LPS model of inflammation in rats: TNF-α in plasma and brain. The format is in vivo, rat. To be noted: for TNF-α plasma levels (in words): both doses (TFBP 16.25/32.5, TFNBP 14.33/28.66 mg/kg i.p.), 4 hr post LPS. The method, then: LPS model of inflammation in rats: Male Fischer 344 rats (Charles River Laboratories, Wilmington, MA, USA) (approx. 150 g weight) were randomly assigned across groups, and thereafter administered either vehicle (Veh), or TFBP or TFNBP. Two doses of TFBPs were evaluated: (TFBP: 16.25 mg/kg or 32.5 mg/kg, and for TFNBP: 14.33 mg/kg or 28.66 mg/kg), i.p. These compounds were suspended in 1% carboxymethyl cellulose (CMC) in saline (0.9%), and administered 60 min prior to either administration of LPS (1 mg/kg, Sigma, St Louis, MO, E. coli O55:B5 in saline (0.9%), 0.1 ml/kg i.p.) or of Vehicle (CMC in saline (0.9%) 0.1 ml/kg, i.p.). […] At 4 hr following LPS or Veh, animals were euthanized, and plasma and brain (hippocampus) tissue samples were collected and stored at −80° C. Brain samples were later sonicated in a Tris-based lysis buffer (Mesoscale Discovery, Gaithersburg, MD, USA) with protease/phosphatase inhibitors (Halt™ Protease and Phosphatase Inhibitor Cocktail, ThermoFisher Scientific, Asheville, NC, USA, diluted to 3×). Next, brain samples were centrifuged (10,000 g, 10 min, 4° C.), and protein concentrations were determined by Bicinchoninic acid assay (BCA, ThermoFisher Scientific, Asheville, NC, USA). An ELISA for TNF-α, IL-6, IL-1B, IL-10 and IL-13 was later performed following the manufacturer's protocol (Mesoscale Discovery).
Four hours after LPS injection, animals were euthanized, and blood and brain tissue were collected and placed on wet ice. Plasma was quickly separated from blood by centrifuge at 10,000 g. 5 min, 4° C., and brain regions of cortex, hippocampus and the rest of brain were dissected into separate vials on wet ice, then stored at −80° C. Brain tissues were then sonicated in a TRIS based lysis buffer (Mesoscale Discovery) with 3× protease/phosphatase inhibitors (Halt™ Protease and Phosphatase Inhibitor Cocktail, Thermo Fisher Scientific), were then centrifuged at 10,000 g, 10 min, 4° C., and protein concentrations were measured by Bicinchoninic acid assay (BCA, Thermo Fisher Scientific). Rat plasma, cerebral cortical and hippocampal samples were then analyzed by multi-proinflammatory cytokines ELISA (V-PLEX Proinflammatory Panel 2 Rat Kit, Mesoscale Discovery), following the manufacturer's protocol. The processes and dosages of the experiment of drug treatment effects on LPS rat model was made on the basis of our previous studies.

Data set [3] deals with LPS-induced nitrite in RAW 264.7 cells. The data set is described as follows: LPS-induced nitrite production in RAW 264.7 cells (Griess reagent / fluorometric kit). The conditions noted are these: for nitrite levels / nitrite level, % of vehicle control / nitrite inhibitory activity (comparison in words): 1 μM; for nitrite levels / nitrite level, % of vehicle control: LPS-challenged RAW 264.7 cells; for nitrite level, % of vehicle control: percentage of vehicle control value (control = 100%), mean ± S.E.M., n = 3; for nitrite inhibitory activity (comparison in words): tetrafluoro vs corresponding difluoro or stereoisomer; for LPS-induced nitrite in cell culture media (in words): 100-1000 nM; for concentration from which nitrite levels were significantly reduced: 100-1000 nM tested, vs LPS+Vehicle. The format is cell-based, mouse. An outline of the steps:
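Nitrite in culture media of LPS-challenged RAW 264.7 cells measured as a stable surrogate for NO, using Griess reagent (sulfanilamide, then N-1-naphthylethylenediamine, 10 min each in the dark). Absorbance at 550 nm, with levels read against a nitrite standard curve ([…]) made in matching medium.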

Another data set deals with RAW 264.7 cells. Briefly: Cell viability of drug treated RAW 264.7 cells (CellTiter 96 AQueous One, MTS).
Where [4] appears, read: high dose (TFBP 32.5, TFNBP 28.66 mg/kg i.p.).
[5] abbreviates: low dose (TFBP 16.25, TFNBP 14.33 mg/kg i.p.).

Entries after “also recorded” stand apart in the source; their conditions may differ.

Data on 3 compounds can be found in patent US20260055061A1, “HALOPHTHALIMIDE COMPOUNDS AND METHODS OF USE AGAINST TBI, INFLAMMATORY DISORDER, AUTOIMMUNE DISORDER, NEURODEGENERATIVE DISEASE OR VIRAL INFECTION” (The United States of America, as represented by the …, priority 2022, published 2026).

For the compound `O=C1c2c(F)c(F)c(F)c(F)c2C(=O)N1C1CC2CCC1C2` (stereo not drawn) [Compound 16, 2-Endo-(bicyclo[2.2.1]heptan-2-yl)-4,5,6,7-tetrafluoroisoindoline-1,3-dione], in the data set with TNF-α [1], the TNF-α level is on record as 55-74%; the “TNF-α % Δ” value was 74 ± 3%; the “LPS-induced TNF-α in cell culture media (in words)” value is “significantly decreased; also recorded: effective in decreasing levels of nitrite and TNF-α”; the “concentration from which TNF-α was significantly reduced” value is given as at least 300 nM. In the data set on IFN-γ, the “Brain cortex IFN-γ levels (in words)” value is listed as “not impacted” and the “IFN-γ in plasma (in words)” value is recorded as “proved able to reduce this rise”. In addition, the “TNF-α plasma levels (in words)” value in the data set with TNF-α [2] is given as “reduced this increase”. Besides, in the data set with TNF-α [2] (setting [4]), the “Cerebral cortex TNF-α, change vs. LPS group” value is reported as −41.7%. In addition, the “Cerebral cortex TNF-α, change vs. LPS group” value in the data set on TNF-α [2] (setting [5]) was “only effectively did so at the higher tested dose”. Moreover, in data set [3], the nitrite levels is 25-36%; the “nitrite level, % of vehicle control” value was 36 ± 4%; the “nitrite inhibitory activity (comparison in words)” value was “more potent nitrite inhibitory activity”; the “LPS-induced nitrite in cell culture media (in words)” value is “significantly decreased; also recorded: effective in decreasing levels of nitrite and TNF-α”. In addition, in data set [3], the “concentration from which nitrite levels were significantly reduced” value is at least 300 nM.

In the case of `CC1(C)[C@@H]2CC[C@@]1(C)[C@@H](N1C(=O)c3c(F)c(F)c(F)c(F)c3C1=O)C2` [Compound 14, 4,5,6,7-Tetrafluoro-2-((1R,2S,4R)-1,7,7-trimethylbicyclo[2.2.1]heptan-2-yl) isoindoline-1,3-dione], in the data set with TNF-α [1], the TNF-α level was 55-74%, the “TNF-α % Δ” value came out at 55 ± 1%, the “LPS-induced TNF-α in cell culture media (in words)” value is “significantly decreased” and the “concentration from which TNF-α was significantly reduced” value is at least 600 nM. In the data set with IFN-γ, the “Brain cortex IFN-γ levels (in words)” value was “not impacted” and the “IFN-γ in plasma (in words)” value is given as “proved able to reduce this rise”. Moreover, the “TNF-α plasma levels (in words)” value in the data set with TNF-α [2] was “reduced this increase”. The “Cerebral cortex TNF-α, change vs. LPS group” value in the data set on TNF-α [2] (setting [4]) was −58.3%. The “TNF-α plasma levels, decline vs. LPS alone group” value with TNF-α [2] (higher dose (TFBP 32.5 mg/kg i.p.), 4 hr post LPS 1 mg/kg) is listed as −76%. Moreover, the “Cerebral cortex TNF-α, change vs. LPS group” value with TNF-α [2] (setting [5]) was −41.7%. Further, in data set [3], the nitrite levels is on record as 25-36%; the “nitrite level, % of vehicle control” value worked out at 26 ± 3%; the “nitrite inhibitory activity (comparison in words)” value was “more potent nitrite inhibitory activity”; the “LPS-induced nitrite in cell culture media (in words)” value is listed as “significantly decreased”. Besides, the “concentration from which nitrite levels were significantly reduced” value in data set [3] is on record as at least 100 nM. In addition, the cell viability in the data set with RAW 264.7 cells (1 μM, RAW 264.7 cells) is listed as at least 94%. In addition, the “Cell Viability % Δ” value in the data set on RAW 264.7 cells (1 μM, RAW 264.7 cells, percentage of vehicle control value, mean ± S.E.M., n = 3) is recorded as 95 ± 4%. The “cell viability (in words)” value in the data set on RAW 264.7 cells (100-1000 nM, vs LPS+Vehicle) was “not significantly affected; also recorded: without impact on cell viability”.

With `Nc1ccc(F)c2c1C(=S)N(C1CCC(=S)NC1=O)C2=O` (stereo not drawn) [Compound 30, 4-amino-7-fluoro-2-(2-oxo-6-thioxopiperidin-3-yl)-3-thioxoisoindolin-1-one], the “LPS-induced elevation in TNF-α levels (in words)” value with TNF-α [1] (0.6-60 μM, LPS 60 ng/mL, 24 h) was “significantly lowered”. In the data set with TNF-α [2] (29.57 mg/kg i.p., LPS rat model), the “TNF-α in plasma and brain” value is listed as “significantly reduce”. In data set [3] (10 uM, LPS-activated RAW 264.7 cells), the “Nitrite, % Change versus Control (± s.e.m.)” value stood at 35.3 ± 3.0%. Besides, the “drop in LPS-induced nitrite production” value in data set [3] (10 μM, stimulated RAW cells) was determined as 65%. For the same compound, the “LPS-induced elevation in nitrite levels (in words)” value in data set [3] (0.6-60 μM, LPS 60 ng/mL, 24 h) is “significantly lowered”. Also, the “nitrite levels (in words)” value in data set [3] (six-compound pomalidomide grouping, RAW cell assay, FIGS. 12-13) is “superior”. In the data set with RAW 264.7 cells (0.6-60 μM, LPS 60 ng/mL, 24 h), this compound came in with a cellular viability above 90%.
